BindingDB's records for doi:10.1016/j.bmcl.2006.04.076 (Merck Research Laboratories, 2006)

Biological target: Beta-secretase 1 (Homo sapiens, UniProt P56817)
Assay: In Vitro BACE1 Activity Assay
Conditions: pH 4.5; 22 °C
Experimental: The assay was performed using a 96-well format on a HPLC equipped with four 96-well plate holders. Test compounds were preincubated with enzymes for 30 min, followed by the addition of substrate. The solution was then incubated for an additional 30 min at room temperature. After the reaction was terminated, the solution was filtered, and the filtrate was subjected to HPLC analysis. The substrate and product were monitored by fluorescence detection (340nm excitation, 440 nm emission).

Beta-secretase 1, sequence (P56817 whole entry): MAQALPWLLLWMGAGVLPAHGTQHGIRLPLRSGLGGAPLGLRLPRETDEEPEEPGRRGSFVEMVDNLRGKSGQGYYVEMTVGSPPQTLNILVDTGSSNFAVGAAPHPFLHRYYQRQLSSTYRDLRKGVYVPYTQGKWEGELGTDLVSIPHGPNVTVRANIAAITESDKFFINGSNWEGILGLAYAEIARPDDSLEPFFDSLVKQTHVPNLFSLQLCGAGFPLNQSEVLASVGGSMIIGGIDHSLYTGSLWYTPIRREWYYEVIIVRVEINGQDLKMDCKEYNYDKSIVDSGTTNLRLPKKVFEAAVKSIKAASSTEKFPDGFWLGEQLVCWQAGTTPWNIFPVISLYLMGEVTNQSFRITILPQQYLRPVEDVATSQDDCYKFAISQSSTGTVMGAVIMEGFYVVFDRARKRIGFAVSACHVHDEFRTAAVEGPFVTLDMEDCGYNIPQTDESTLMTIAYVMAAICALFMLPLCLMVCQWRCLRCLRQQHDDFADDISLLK

Compound	IC50 [µM]
CC(C)CNC(=O)[C@H](C)NC[C@H](Cc1ccccc1)NC(=O)c1cc(/C=C\[C@H]2C[C@@H]2C)cc(N(C)S(C)(=O)=O)c1 [N-[(1S)-1-benzyl-2-({(1S)-1-methyl-2-[(2-methylpropyl)amino]-2-oxoethyl}amino)ethyl]-3-{(Z)-2-[(1S,2S)-2-methylcyclopropyl]ethenyl}-5-[methyl(methylsulfonyl)amino]benzamide]	0.02
C[C@H](NC[C@H](Cc1ccccc1)NC(=O)c1cc(C(=O)N[C@H](C)c2ccc(F)cc2)cc(N(C)S(C)(=O)=O)c1)C(=O)N1CCCC1C(=O)O (stereo partly drawn) [1-[(2S)-2-{[(2S)-2-[(3-{[(1R)-1-(4-fluorophenyl)ethyl]carbamoyl}-5-(N-methylmethanesulfonamido)phenyl)formamido]-3-phenylpropyl]amino}propanoyl]pyrrolidine-2-carboxylic acid]	17.2
